Measured values published in patent publication US20240190849A1, “AMINOPYRIMIDINE COMPOUNDS AND METHODS OF THEIR USE” (TYRA BIOSCIENCES, INC., priority 2021, published 2024).

How the values were obtained:
FGFR3 (V555M) = molecular target: T1, FGFR3 (V555M) (Homo sapiens, UniProt P22607, V555M); test: Kinase binding assay (kinase-tagged T7 phage, affinity beads, qPCR readout), FGFR3 (V555M); settings: FGFR binding data
T1 construct: made in house; host or cells: E. coli derived from BL21, infected with T7 phage
T1 sequence (P22607 23-806 V555M): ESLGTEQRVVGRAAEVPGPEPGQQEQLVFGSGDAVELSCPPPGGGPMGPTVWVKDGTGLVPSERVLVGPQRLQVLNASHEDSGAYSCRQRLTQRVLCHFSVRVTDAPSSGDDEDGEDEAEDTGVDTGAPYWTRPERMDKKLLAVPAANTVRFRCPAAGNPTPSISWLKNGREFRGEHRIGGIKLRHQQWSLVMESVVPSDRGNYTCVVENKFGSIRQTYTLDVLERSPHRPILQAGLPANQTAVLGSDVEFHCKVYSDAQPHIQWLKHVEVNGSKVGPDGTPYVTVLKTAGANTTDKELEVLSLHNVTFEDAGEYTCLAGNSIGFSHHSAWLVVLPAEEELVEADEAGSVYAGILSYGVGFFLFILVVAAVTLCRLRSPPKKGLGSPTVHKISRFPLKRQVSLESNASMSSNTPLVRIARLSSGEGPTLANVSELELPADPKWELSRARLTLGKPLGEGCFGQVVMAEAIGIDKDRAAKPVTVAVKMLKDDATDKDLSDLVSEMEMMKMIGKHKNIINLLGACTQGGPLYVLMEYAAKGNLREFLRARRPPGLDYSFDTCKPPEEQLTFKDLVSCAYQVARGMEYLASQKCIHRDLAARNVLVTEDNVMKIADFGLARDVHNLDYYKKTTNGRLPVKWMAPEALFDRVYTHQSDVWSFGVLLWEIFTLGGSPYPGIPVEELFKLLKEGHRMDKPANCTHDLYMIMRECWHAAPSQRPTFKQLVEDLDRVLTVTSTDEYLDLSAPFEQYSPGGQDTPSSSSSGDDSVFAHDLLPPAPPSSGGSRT
Procedure, shortened: (§1)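 Competition binding: kinases displaced from biotinylated-ligand streptavidin beads by test compound in binding buffer (20% SeaBlock, 0.17×PBS, 0.05% Tween 20, 6 mM DTT), 1 hour at room temperature, 0.9% DMSO. Bead-bound kinase eluted with 0.5 μM free ligand, quantified by qPCR. Kd from 11-point 3-fold dilutions, Hill slope fixed at −1.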

FGFR3 = molecular target: T2, FGFR3 (Homo sapiens, UniProt P22607); test: Kinase binding assay (kinase-tagged T7 phage, affinity beads, qPCR readout), FGFR3; settings: FGFR binding data
T2 construct: made in house; host or cells: E. coli derived from BL21, infected with T7 phage
T2 sequence (P22607 23-806): as the sequence (P22607 23-806 V555M) above, with M533V counted along it
Procedure, shortened: as §1

FGFR2 = molecular target: T3, FGFR2 (Homo sapiens, UniProt P21802); test: Kinase binding assay (kinase-tagged T7 phage, affinity beads, qPCR readout), FGFR2; settings: FGFR binding data
T3 construct: made in house; host or cells: E. coli derived from BL21, infected with T7 phage
T3 sequence (P21802 22-821): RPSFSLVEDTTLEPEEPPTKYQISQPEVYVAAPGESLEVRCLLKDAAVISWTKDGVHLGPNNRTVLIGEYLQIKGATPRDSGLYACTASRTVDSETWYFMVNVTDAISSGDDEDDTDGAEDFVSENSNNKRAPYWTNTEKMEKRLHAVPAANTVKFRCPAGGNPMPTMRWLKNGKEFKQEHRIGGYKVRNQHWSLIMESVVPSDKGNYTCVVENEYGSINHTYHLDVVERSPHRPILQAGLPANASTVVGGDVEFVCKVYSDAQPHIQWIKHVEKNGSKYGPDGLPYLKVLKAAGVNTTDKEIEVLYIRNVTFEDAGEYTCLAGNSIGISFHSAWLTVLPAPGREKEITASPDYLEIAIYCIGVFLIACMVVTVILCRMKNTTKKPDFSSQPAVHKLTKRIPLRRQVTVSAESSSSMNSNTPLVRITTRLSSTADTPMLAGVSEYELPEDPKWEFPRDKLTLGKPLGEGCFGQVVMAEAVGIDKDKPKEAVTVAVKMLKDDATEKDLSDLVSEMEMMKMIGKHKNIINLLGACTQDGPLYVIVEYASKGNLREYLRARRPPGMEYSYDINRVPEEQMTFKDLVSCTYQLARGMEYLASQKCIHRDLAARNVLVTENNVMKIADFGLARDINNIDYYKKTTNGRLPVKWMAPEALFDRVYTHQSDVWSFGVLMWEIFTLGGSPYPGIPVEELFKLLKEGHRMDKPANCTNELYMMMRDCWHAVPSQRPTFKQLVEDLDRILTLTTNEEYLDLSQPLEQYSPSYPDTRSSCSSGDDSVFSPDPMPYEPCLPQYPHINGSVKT
Procedure, shortened: as §1

[1] = test system: RT112/84 (Bladder Cancer), FGFR3-TACC3 fusion; test: Cancer cell viability assay (Cell Titer-Glo), RT112/84; assay type: cell-based; settings: Homo sapiens, RT112/84 cells, 72 hours
Text: (§2) RT112/84, UM-UC-14, SNU-16 and KG-1 Cancer Cell Line Cell Viability Assays
(§3) To detect the change of intracellular ATP by Cell Titer-Glo@ and to evaluate the inhibitory effect of the compounds on cancer cell lines by determining the in vitro IC50 value of the compounds.
(§4) Cell Titer-Glo@ 2.0 Luminescent cell viability assay reagent was purchased from Promega (Madison, WI). RT112/84, SNU-16, and KG-1 cell lines were purchased from American Type Culture Collection (Manassas, VA). UM-UC-14 cell line was purchased from Sigma (St. Louis, MO). RT112/84, UM-UC-14, SNU-16, and KG-1 cells were cultured in RPMI1640 media supplemented with 10% fetal bovine serum. Cultures were maintained at 37° C. in a humidified atmosphere of 5% CO2 and 95% air.
(§5) Cell Viability Assay Procedure: Cells were plated in 96-well clear bottom/white plates (Corning #3903) at 10,000 cells/well in 100 μl of media, incubated overnight. The next day, test compound DMSO stock solutions were made at 10 mM and 2 μM final concentration. Compounds were then added to cells in a 9-dose, […] dilution series starting at 30 μM with an HP 300e Digital Dispenser (each dose was applied in triplicate). DMSO was backfilled to each well up to 301 nL total volume of test compound+DMSO, and a total of 301 nL DMSO was added to a control/no test compound well in triplicate. The cells in cell culture plates were incubated with the compounds at 37° C. and 5% CO2 for 72 hours. Then 50 μl of Cell Titer Glo 2.0 reagent was added to each well of the cell culture plates. The contents were covered from light and mixed on an orbital shaker at room temperature for 10 min. Luminescence was recorded by a Synergy H1 Microplate Reader (Biotek, Winooski, VT). Cells were assessed as a percentage of DMSO only treated control cells. Curves were plotted and IC50 values were calculated using the GraphPad Prism 8 program based on a sigmoidal dose-response equation (4 parameter).

FGFR1 = molecular target: T4, FGFR1 (Homo sapiens, UniProt P11362); test: Kinase binding assay (kinase-tagged T7 phage, affinity beads, qPCR readout), FGFR1; settings: FGFR binding data
T4 construct: made in house; host or cells: E. coli derived from BL21, infected with T7 phage
T4 sequence (P11362 22-822): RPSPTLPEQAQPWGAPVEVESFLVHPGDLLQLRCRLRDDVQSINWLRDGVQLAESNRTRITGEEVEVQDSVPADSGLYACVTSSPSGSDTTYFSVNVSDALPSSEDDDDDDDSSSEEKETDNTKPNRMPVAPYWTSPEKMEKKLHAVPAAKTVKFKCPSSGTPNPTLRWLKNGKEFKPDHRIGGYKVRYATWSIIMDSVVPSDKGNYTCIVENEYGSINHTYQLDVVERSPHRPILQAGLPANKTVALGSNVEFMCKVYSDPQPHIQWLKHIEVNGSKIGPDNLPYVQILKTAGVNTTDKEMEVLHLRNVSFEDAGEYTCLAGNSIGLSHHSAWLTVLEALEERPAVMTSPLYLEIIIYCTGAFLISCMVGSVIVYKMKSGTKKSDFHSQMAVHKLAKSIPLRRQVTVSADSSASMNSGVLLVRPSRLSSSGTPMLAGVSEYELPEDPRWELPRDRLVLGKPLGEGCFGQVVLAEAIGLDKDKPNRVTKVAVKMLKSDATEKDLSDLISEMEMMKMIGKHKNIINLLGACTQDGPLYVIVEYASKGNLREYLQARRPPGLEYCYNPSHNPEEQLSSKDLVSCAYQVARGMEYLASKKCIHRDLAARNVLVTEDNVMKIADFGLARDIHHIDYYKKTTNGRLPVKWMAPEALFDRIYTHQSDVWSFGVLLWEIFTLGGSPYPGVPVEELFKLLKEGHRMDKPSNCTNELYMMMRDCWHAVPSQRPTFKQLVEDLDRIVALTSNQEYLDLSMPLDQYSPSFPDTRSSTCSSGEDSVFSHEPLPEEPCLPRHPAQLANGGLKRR
Procedure, shortened: as §1

[2] = test system: SNU-16 (Gastric Carcinoma), FGFR2 amplification; test: Cancer cell viability assay (Cell Titer-Glo), SNU-16; assay type: cell-based; settings: Homo sapiens, SNU-16 cells, 72 hours, read-out: SNU16 FGFR2 (IC50 nM)
Procedure, shortened: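 Cells seeded at 10,000/well in RPMI1640 with 10% FBS, then exposed 72 h at 37° C. to a 9-point 10-fold dilution series from 30 μM, in triplicate. Viability read as ATP luminescence (CellTiter-Glo 2.0) as percent of DMSO control; IC50 from 4-parameter sigmoidal fit.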

[3] = test system: UM-UC-14 (Bladder Cancer), FGFR3(S249C); test: Cancer cell viability assay (Cell Titer-Glo), UM-UC-14; assay type: cell-based; settings: UMUC14, UM-UC-14 cells, 72 hours
Text: as §2, §3, §4, §5

Row | SMILES | Kd (FGFR3 (V555M)) | Kd (FGFR3) | Kd (FGFR2) | IC50 [1] | Kd (FGFR1) | IC50 [2] | IC50 [3]
1 | C=CC(=O)Nc1ccc2c(-c3nc(Nc4ccc(N5CCN(C)CC5)cc4)ncc3Cl)cn(C)c2c1 [Example 50, N-[3-[5-chloro-2-[4-(4-methylpiperazin-1-yl)anilino]-pyrimidin-4-yl]-1-methyl-indol-6-yl]prop-2-enamide] |  |  |  | 0.1 to 100 nM |  |  | 
2 | C=CC(=O)Nc1ccc2c(c1)c(C)cn2-c1nc(Nc2cnn(CCO)c2)ncc1Cl [Example 89, N-[1-[5-chloro-2-[[1-(2-hydroxyethyl)pyrazol-4-yl]amino]pyrimidin-4-yl]-3-methyl-indol-5-yl]prop-2-enamide] | 0.1 to 100 nM | 0.1 to 100 nM | 0.1 to 100 nM |  | 0.1 to 100 nM | 0.1 to 100 nM | 0.1 to 100 nM
3 | C=CC(=O)Nc1ccc2c(c1)c(C)cn2-c1nc(Nc2cnn(CCO)c2)ncc1F [Example 90, N-[1-[5-fluoro-2-[[1-(2-hydroxyethyl)pyrazol-4-yl]amino]pyrimidin-4-yl]-3-methyl-indol-5-yl]prop-2-enamide] | 0.1 to 100 nM | 0.1 to 100 nM | 0.1 to 100 nM |  | 0.1 to 100 nM | 0.1 to 100 nM | 0.1 to 100 nM
4 | C=CC(=O)Nc1ccc2c(-c3ccnc(Nc4cnn(C(F)(F)F)c4)n3)cn(C)c2c1 [Example 184, N-[1-methyl-3-[2-[[1-(trifluoromethyl)pyrazol-4-yl]amino]pyrimidin-4-yl]indol-6-yl]prop-2-enamide] | 0.1 to 100 nM | 0.1 to 100 nM | 0.1 to 100 nM |  | 250 to 1000 nM | 0.1 to 100 nM | 0.1 to 100 nM
5 | C=CC(=O)Nc1ccc2c(c1)c(C)cn2-c1nc(Nc2cnn3c2CCC3)ncc1F [Example 207, N-[1-[2-(5,6-dihydro-4H-pyrrolo[1,2-b]pyrazol-3-ylamino)-5-fluoro-pyrimidin-4-yl]-3-methyl-indol-5-yl]prop-2-enamide] | 0.1 to 100 nM | 0.1 to 100 nM | 0.1 to 100 nM |  | 0.1 to 100 nM |  | 0.1 to 100 nM

Now from value to compound:

Row | Kd (FGFR3 (V555M)) | Kd (FGFR3) | Kd (FGFR2) | IC50 [1] | Kd (FGFR1) | IC50 [2] | IC50 [3] | SMILES
6 | 0.1 to 100 nM | 0.1 to 100 nM | 0.1 to 100 nM | 100 to 250 nM | 0.1 to 100 nM |  |  | C=CC(=O)Nc1ccc2c(ccn2-c2nc(Nc3ccc(N4CCN(C)CC4)cc3)ncc2Cl)c1 [Example 1, N-[1-[5-chloro-2-[4-(4-methylpiperazin-1-yl)anilino]pyrimidin-4-yl]indol-5-yl]prop-2-enamide]
7 | 0.1 to 100 nM | 0.1 to 100 nM | 0.1 to 100 nM | 100 to 250 nM | 0.1 to 100 nM |  |  | C=CC(=O)Nc1ccc2c(c1)c(C)cn2-c1nc(Nc2cnn(C)c2)ncc1C#N [Example 32, N-[1-[5-cyano-2-[(1-methylpyrazol-4-yl)amino]pyrimidin-4-yl]-3-methyl-indol-5-yl]prop-2-enamide]
8 | 0.1 to 100 nM | 0.1 to 100 nM | 0.1 to 100 nM | 0.1 to 100 nM | 0.1 to 100 nM |  |  | C=CC(=O)Nc1ccc2c(c1)c(C)cn2-c1nc(Nc2ccc(N3CCOCC3)cc2)ncc1C#N [Example 38, N-[1-[5-cyano-2-(4-morpholinoanilino)pyrimidin-4-yl]-3-methyl-indol-5-yl]prop-2-enamide]
9 | 0.1 to 100 nM | 0.1 to 100 nM | 0.1 to 100 nM | 250 to 1000 nM | 100 to 250 nM |  |  | C=CC(=O)Nc1ccc2c(c1)c(C)cn2-c1nc(Nc2c(C)nn(C)c2C)ncc1Cl [Example 41, N-[1-[5-chloro-2-[(1,3,5-trimethylpyrazol-4-yl)amino]pyrimidin-4-yl]-3-methyl-indol-5-yl]prop-2-enamide]
10 | 0.1 to 100 nM | 0.1 to 100 nM | 0.1 to 100 nM | 250 to 1000 nM | 100 to 250 nM |  |  | C=CC(=O)Nc1ccc2c(c1)c(C)cn2-c1nc(Nc2cn(C)nc2C#N)ncc1Cl [Example 70, N-[1-[5-chloro-2-[(3-cyano-1-methyl-pyrazol-4-yl)amino]pyrimidin-4-yl]-3-methyl-indol-5-yl]prop-2-enamide]
